Data: BindingDB's records for doi:10.1158/0008-5472.CAN-07-0320 (University Hospital Basel, 2007)

Key:
[1] = molecular target: Serine/threonine-protein kinase pim-2 (Homo sapiens, UniProt Q9P1W9); experiment: Kinase Inhibition Assay; conditions: pH 7.5; 25 °C
Description: (§1) Phosphorylation reactions were monitored using a coupled-enzyme assay in which ADP production was coupled to NADH oxidation by pyruvate kinase and lactate dehydrogenase. The assay was carried out in a buffer containing phosphoenolpyruvate, NADH, pyruvate kinase, lactate dehydrogenase, and PIM kinase. The reaction was monitored at 340 nm at 25 deg C on a Spectramax spectrophotometer (Molecular Devices) and started by addition ATP after a 10-min preincubation at 25 deg C. A recognition peptide of the PIM1 substrate p21 ([…]) was used. DMSO-dissolved inhibitors were added at the preincubation period resulting in a 2% final DMSO. Kinetic analysis was done by nonlinear regression fitting using the program KaleidaGraph (Synergy Software).

[2] = molecular target: Serine/threonine-protein kinase pim-1 (Homo sapiens, UniProt P11309); experiment: Kinase Inhibition Assay; conditions: pH 7.5; 25 °C
Chain of Serine/threonine-protein kinase pim-1 (P11309 whole entry): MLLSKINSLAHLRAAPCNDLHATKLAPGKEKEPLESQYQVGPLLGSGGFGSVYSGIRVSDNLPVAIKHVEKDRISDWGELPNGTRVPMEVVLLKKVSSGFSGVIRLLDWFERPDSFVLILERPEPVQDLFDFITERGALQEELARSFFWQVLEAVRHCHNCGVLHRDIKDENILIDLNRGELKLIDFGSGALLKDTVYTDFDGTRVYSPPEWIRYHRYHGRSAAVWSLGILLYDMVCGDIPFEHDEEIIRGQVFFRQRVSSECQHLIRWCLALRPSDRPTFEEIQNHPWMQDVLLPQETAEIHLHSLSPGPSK
Description: as §1

Chain of Serine/threonine-protein kinase pim-2 (Q9P1W9 whole entry): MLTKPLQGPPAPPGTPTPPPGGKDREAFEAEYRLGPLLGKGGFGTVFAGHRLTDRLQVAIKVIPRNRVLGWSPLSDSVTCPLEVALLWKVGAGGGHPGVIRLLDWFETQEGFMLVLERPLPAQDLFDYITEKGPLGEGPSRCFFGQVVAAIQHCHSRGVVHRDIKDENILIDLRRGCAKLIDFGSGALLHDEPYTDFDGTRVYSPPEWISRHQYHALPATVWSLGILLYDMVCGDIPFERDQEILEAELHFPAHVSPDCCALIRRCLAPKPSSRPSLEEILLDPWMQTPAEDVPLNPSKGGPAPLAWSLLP

| IC50 [1] | IC50 [2] | SMILES |
| --- | --- | --- |
| 1.8 µM | – | CC(=O)c1cccc(-c2cnc3ccc(NCC4CC4)nn23)c1 [1-(3-{6-[(cyclopropylmethyl)amino]imidazo[1,2-a]pyridazin-3-yl}phenyl)ethan-1-one] |
| 7.1 µM | 0.05 µM | Clc1cccc(-c2cnc3ccc(NC4CCOCC4)nn23)c1 [K00152] |
| 2.5 µM | 0.04 µM | CCC(CO)Nc1ccc2ncc(-c3ccc(F)c(Cl)c3)n2n1 (stereo not given) [K00486] |
